Experimental data: PubChem BioAssay AID1963974 (Molecular Pharmacology Branch, DTP, NCI, 2024)

System: 648629-189-R-J1-PDC spheroids with HUVEC/MSC, viability
Test: Anticancer human tumor 648629-189-R-J1-PDC patient-derived bladder carcinoma cell line growth inhibition [PI3K]
Details: for IC50: curve of first compound; for viability, T/C: stronger effect = lower value
Outline: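 Viability of mixed-cell spheroids was determined after exposure to pairwise combinations, one partner being inavolisib, alpelisib, duvelisib or copanlisib. Highest tested concentration matched clinical Cmax where known and 10 microM where not, descending in half-log steps.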

[1] = second compound 0.00316 µM, first compound 0.000316 µM
[2] = second compound 0.00316 µM, first compound 0.001 µM
[3] = second compound 0.00316 µM, first compound 0.00316 µM
[4] = second compound 0.00316 µM, first compound 0.01 µM
[5] = second compound 0.00316 µM, first compound 0.0316 µM
[6] = second compound 0.00316 µM, first compound 0.1 µM
[7] = second compound 0.01 µM, first compound 0.000316 µM
[8] = second compound 0.01 µM, first compound 0.001 µM
[9] = second compound 0.01 µM, first compound 0.00316 µM
[10] = second compound 0.01 µM, first compound 0.01 µM
[11] = second compound 0.01 µM, first compound 0.0316 µM
[12] = second compound 0.01 µM, first compound 0.1 µM
[13] = second compound 0.0316 µM, first compound 0.000316 µM
[14] = second compound 0.0316 µM, first compound 0.001 µM
[15] = second compound 0.0316 µM, first compound 0.00316 µM
[16] = second compound 0.0316 µM, first compound 0.01 µM
[17] = second compound 0.0316 µM, first compound 0.0316 µM
[18] = second compound 0.0316 µM, first compound 0.1 µM
[19] = second compound 0.1 µM, first compound 0.000316 µM
[20] = second compound 0.1 µM, first compound 0.001 µM
[21] = second compound 0.1 µM, first compound 0.00316 µM
[22] = second compound 0.1 µM, first compound 0.01 µM
[23] = second compound 0.1 µM, first compound 0.0316 µM
[24] = second compound 0.1 µM, first compound 0.1 µM
[25] = second compound 0.316 µM, first compound 0.000316 µM
[26] = second compound 0.316 µM, first compound 0.001 µM
[27] = second compound 0.316 µM, first compound 0.00316 µM
[28] = second compound 0.316 µM, first compound 0.01 µM
[29] = second compound 0.316 µM, first compound 0.0316 µM
[30] = second compound 0.316 µM, first compound 0.1 µM
[31] = second compound 1 µM, first compound 0.000316 µM
[32] = second compound 1 µM, first compound 0.001 µM
[33] = second compound 1 µM, first compound 0.00316 µM
[34] = second compound 1 µM, first compound 0.01 µM
[35] = second compound 1 µM, first compound 0.0316 µM
[36] = second compound 1 µM, first compound 0.1 µM
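Further: spheroids exposed to agents for seven days before reading.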
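Wherever viability, T/C is given: percent of vehicle control luminescence where 100% = DMSO treated spheroids.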

CC(=O)c1c(C)c2cnc(Nc3ccc(N4CCNCC4)cn3)nc2n(C2CCCC2)c1=O + COc1c(OCCCN2CCOCC2)ccc2c3n(c(=NC(=O)c4cnc(N)nc4)nc12)CCN3
IC50 (second compound 0.00316 µM): > 100 nM | IC50 (second compound 0.01 µM): > 100 nM | IC50 (second compound 0.0316 µM): > 100 nM | IC50 (second compound 0.1 µM): > 100 nM | IC50 (second compound 0.316 µM): < 0.316 nM | IC50 (second compound 1 µM): < 0.316 nM | viability, T/C [1]: 106% | viability, T/C [2]: 98.1% | viability, T/C [3]: 99.6% | viability, T/C [4]: 101% | viability, T/C [5]: 117% | viability, T/C [6]: 98.9% | viability, T/C [7]: 98.2% | viability, T/C [8]: 110% | viability, T/C [9]: 99.8% | viability, T/C [10]: 101% | viability, T/C [11]: 103% | viability, T/C [12]: 107% | viability, T/C [13]: 89.7% | viability, T/C [14]: 100% | viability, T/C [15]: 106% | viability, T/C [16]: 99.1% | viability, T/C [17]: 89.4% | viability, T/C [18]: 94.2% | viability, T/C [19]: 68.6% | viability, T/C [20]: 66.8% | viability, T/C [21]: 64.8% | viability, T/C [22]: 61% | viability, T/C [23]: 70.1% | viability, T/C [24]: 68.4% | viability, T/C [25]: 23.5% | viability, T/C [26]: 23.2% | viability, T/C [27]: 22.4% | viability, T/C [28]: 26.3% | viability, T/C [29]: 27.6% | viability, T/C [30]: 19.6% | viability, T/C [31]: 3.72% | viability, T/C [32]: 3.62% | viability, T/C [33]: 3.08% | viability, T/C [34]: 4% | viability, T/C [35]: 4.37% | viability, T/C [36]: 2.62%

CC(C)n1nc(-c2ccc3oc(N)nc3c2)c2c(N)ncnc21 + COc1c(OCCCN2CCOCC2)ccc2c3n(c(=NC(=O)c4cnc(N)nc4)nc12)CCN3
IC50 (second compound 0.00316 µM): 57.4 nM | IC50 (second compound 0.01 µM): 46.4 nM | IC50 (second compound 0.0316 µM): 35.4 nM | IC50 (second compound 0.1 µM): 14.6 nM | IC50 (second compound 0.316 µM): < 0.316 nM | IC50 (second compound 1 µM): < 0.316 nM | viability, T/C [1]: 90.5% | viability, T/C [2]: 79.5% | viability, T/C [3]: 95.2% | viability, T/C [4]: 77.8% | viability, T/C [5]: 72.7% | viability, T/C [6]: 30.3% | viability, T/C [7]: 86.2% | viability, T/C [8]: 89.9% | viability, T/C [9]: 90.4% | viability, T/C [10]: 79.5% | viability, T/C [11]: 62.4% | viability, T/C [12]: 25.9% | viability, T/C [13]: 79.1% | viability, T/C [14]: 86.4% | viability, T/C [15]: 86% | viability, T/C [16]: 68.3% | viability, T/C [17]: 54.5% | viability, T/C [18]: 21.7% | viability, T/C [19]: 63.1% | viability, T/C [20]: 56.8% | viability, T/C [21]: 61.1% | viability, T/C [22]: 58.3% | viability, T/C [23]: 32.8% | viability, T/C [24]: 13.3% | viability, T/C [25]: 18.5% | viability, T/C [26]: 21.5% | viability, T/C [27]: 18.2% | viability, T/C [28]: 15.8% | viability, T/C [29]: 12.2% | viability, T/C [30]: 5.55% | viability, T/C [31]: 3.09% | viability, T/C [32]: 3% | viability, T/C [33]: 2.48% | viability, T/C [34]: 3.58% | viability, T/C [35]: 2.39% | viability, T/C [36]: 0.95%
